We go through one molecule from article PMC11796312, “Multifunctional, Fluorene‐Based Modulator of Cholinergic and GABAergic Neurotransmission as a Novel Drug Candidate for Palliative Treatment of Alzheimer's Disease” (Angewandte Chemie (International Ed. in English), 2024).

Test [1] concerns the target T1, human norepinephrine transporter (Homo sapiens, UniProt P23975).
T1 construct: expressed in transfected cells
The experiment in a line: Norepinephrine Transporter Competition Binding Assay. Particulars: NET Ki. The protocol: Norepinephrine Transporter Competition Binding Assay
Preparation of solutions of test and reference compounds
First, 10 mM stock solutions of tested compounds were prepared in DMSO. Serial dilutions of compounds were prepared in a 96-well microplate in an assay buffer using the automated pipetting system epMotion 5070. Each compound was tested in 8 concentrations ranging from 10^-3 to 10^-10 M (final concentration).
Radioligand binding was performed using membranes from the MDCK cell line stably transfected with the human norepinephrine transporter. All assays were carried out in duplicates. Volumes of 50 µl working solution of the tested compounds, 50 µl [ 3H]- Nisoxetine (spec. act. 80.2 Ci/mmol, final concentration 4 nM), and 150 µl diluted membranes (5 µg protein per well) prepared in assay buffer (50 mM Tris -HCl, pH 7.4; 120 mM NaCl; 5 mM KCl) were transferred to polypropylene 96-well microplate using 96-wells pipetting station Rainin Liquidator. Desipramine (10 μM) was used to define nonspecific binding. The microplate was covered with sealing tape, mixed, and incubated for 60 minutes at 4 °C. The reaction was terminated by rapid filtration through GF/B filter mate presoaked with 0.5% polyethyleneimine for 30 minutes. Five rapid washes with 300 µl 50 mM Tris buffer (4 °C, pH 7.4) were performed using a 96 -well FilterMate harvester. The filter mates were dried at 37 °C in the forced air fan incubator, and then, solid scintillator MeltiLex B/HS was melted on filter mates at 90 °C for 4 minutes. Radioactivity was counted in the MicroBeta2 scintillation counter (PerkinElmer). Data were fitted to a one -site curve-fitting equation with Prism 8.0 (GraphPad Software), and Ki values were estimated from the […]
Result of Norepinephrine Transporter Competition Binding Assay
Table S9. Results of binding to norepinephrine transporter (NET) of tested compounds COMPOUND Ki [nM] pKi Ki [nM] pKi Ki [nM] pKi

For test [2], the target named is T2, mGAT3 (Mus musculus, UniProt P31649).
T2 sequence (P31649 1-602): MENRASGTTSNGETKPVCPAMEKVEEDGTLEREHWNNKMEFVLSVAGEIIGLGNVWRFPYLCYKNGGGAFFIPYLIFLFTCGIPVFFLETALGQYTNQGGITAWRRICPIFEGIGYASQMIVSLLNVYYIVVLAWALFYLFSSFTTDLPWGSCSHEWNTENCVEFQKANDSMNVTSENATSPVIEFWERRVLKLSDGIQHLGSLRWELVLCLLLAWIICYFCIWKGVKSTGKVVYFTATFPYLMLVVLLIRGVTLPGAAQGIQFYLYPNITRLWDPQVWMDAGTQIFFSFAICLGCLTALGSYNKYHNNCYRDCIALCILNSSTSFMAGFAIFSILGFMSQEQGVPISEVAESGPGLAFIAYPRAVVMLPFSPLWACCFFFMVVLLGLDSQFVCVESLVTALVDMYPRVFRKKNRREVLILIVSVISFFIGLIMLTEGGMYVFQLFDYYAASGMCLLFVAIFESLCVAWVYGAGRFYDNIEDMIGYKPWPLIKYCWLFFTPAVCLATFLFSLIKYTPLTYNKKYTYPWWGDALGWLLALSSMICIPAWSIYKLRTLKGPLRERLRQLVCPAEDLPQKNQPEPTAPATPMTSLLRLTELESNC
The experiment in a line: [3H]GABA uptake assay, mGAT3. Format: cell-based.

The subject of test [3] is mouse microglial cells SIM-A9. Kind of test: MTT cell viability assay, SIM-A9. Particulars: Mus musculus, SIM-A9, 24 h; read-out: IC50 (MTT) ± SEM. It is filed as cell-based. An excerpt: Human neuroblastoma cells SH-SY5Y and mouse microglial cells SIM-A9 were used to evaluate cell viability, intracellular RONS, and malondialdehyde (MDA; CAS No. 542–78-9).
SH-SY5y cells were cultivated in Dulbecco's modified Eagle's medium (DMEM; Biosera, Nuaille, France) supplemented with 10% fetal bovine serum (Biosera) and 1% penicillin-streptomycin antibiotic solution (Sigma-Aldrich, St. Louis, MO, USA). The culture medium for SIM-A9 cells was further supplemented with donor horse serum (Biosera). The cells were incubated at 37 °C in a CO2 incubator (BINDER CO2 incubator CB 160, Tuttlingen, Germany) and routinely passaged by trypsinization at 75 –85% confluence.
Colorimetric Cell Viability Assay
The toxicological indices IC 50 used in the present study were measured utilizing 3-(4,5-dimethylthiazol-2-yl)-2,5-diphenyl-tetrazolium bromide (MTT) reduction assay after (1 picture or pasted object on this page, not shown here)
24 h incubation with tested compounds. […]
incubation, the cultivation medium containing serially diluted substances was aspirated and replaced with a fresh medium containing MTT at a concentration of 0.5 mg/mL and subsequently incubated at 37 °C for 1 h. […] Cell viability was assessed spectrophotometrically by the amount of formazan produced. Absorbance was measured at 570 nm with 650 nm reference wavelength on Spark (Tecan Group Ltd, Switzerland). […]

T1 sequence (P23975 whole entry): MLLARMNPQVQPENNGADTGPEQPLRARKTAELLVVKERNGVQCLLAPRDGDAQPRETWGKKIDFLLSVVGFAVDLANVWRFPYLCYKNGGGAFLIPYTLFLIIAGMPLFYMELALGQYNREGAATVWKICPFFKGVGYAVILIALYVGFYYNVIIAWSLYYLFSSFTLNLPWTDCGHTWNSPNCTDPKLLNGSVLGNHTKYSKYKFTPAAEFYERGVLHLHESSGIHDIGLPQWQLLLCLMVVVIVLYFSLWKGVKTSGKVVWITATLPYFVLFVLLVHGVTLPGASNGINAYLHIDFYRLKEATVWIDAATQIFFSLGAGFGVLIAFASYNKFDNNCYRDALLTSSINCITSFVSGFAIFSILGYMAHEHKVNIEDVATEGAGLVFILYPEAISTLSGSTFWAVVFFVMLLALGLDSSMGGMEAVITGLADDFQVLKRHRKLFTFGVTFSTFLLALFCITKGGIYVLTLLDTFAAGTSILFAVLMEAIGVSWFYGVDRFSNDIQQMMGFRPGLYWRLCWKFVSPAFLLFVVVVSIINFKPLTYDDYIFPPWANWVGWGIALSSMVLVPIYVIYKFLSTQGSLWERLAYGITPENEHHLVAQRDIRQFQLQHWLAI

Regarding `O[C@H](CNCC1CC1)[C@H](Cc1ccccc1)NC1c2ccccc2-c2ccccc21` [Compound 6], the Ki in test [1] stood at 837 nM; in test [1] (third Ki column (likely the mean)), 774 nM; in test [1] ([3H]-Nisoxetine) it was 714 nM. The results for the IC50 in test [2] and in test [3] were 7410 ± 690 nM and 6460 ± 90 nM, respectively.
